Here are results for 13 compounds from article PMC11755336 (Journal of Pharmaceutical Analysis, 2024).

The structures appear in SMILES notation. Where two headings read alike, the source gives them in different places.

In data set [1] the target is AChE (Homo sapiens, UniProt P22303). The experiment in a line: biochemical. The data set is classed as biochemical.
For data set [2], the target named is AChE (Electrophorus electricus, UniProt O42275). Put plainly: biochemical. It counts as binding.
Chain of AChE (Electrophorus electricus, UniProt O42275) (O42275 24-633): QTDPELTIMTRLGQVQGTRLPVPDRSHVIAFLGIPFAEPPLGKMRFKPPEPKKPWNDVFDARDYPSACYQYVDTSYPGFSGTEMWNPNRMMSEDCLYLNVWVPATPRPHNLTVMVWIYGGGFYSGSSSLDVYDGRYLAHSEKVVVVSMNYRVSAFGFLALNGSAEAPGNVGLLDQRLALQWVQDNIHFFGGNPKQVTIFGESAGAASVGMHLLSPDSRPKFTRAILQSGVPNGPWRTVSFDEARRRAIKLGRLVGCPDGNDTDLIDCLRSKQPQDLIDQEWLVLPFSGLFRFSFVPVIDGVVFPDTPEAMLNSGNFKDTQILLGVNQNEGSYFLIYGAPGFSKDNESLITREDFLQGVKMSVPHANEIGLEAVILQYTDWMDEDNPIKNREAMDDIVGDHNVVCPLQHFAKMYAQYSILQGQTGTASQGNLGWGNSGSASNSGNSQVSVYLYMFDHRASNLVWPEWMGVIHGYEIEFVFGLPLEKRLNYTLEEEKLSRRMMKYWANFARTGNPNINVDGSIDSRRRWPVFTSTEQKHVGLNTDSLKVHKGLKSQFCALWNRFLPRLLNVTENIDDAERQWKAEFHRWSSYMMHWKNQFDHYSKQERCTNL
A further data set concerns BV2 cells. Put plainly: Aβ phagocytosis assay in BV2 cells. The conditions noted are these: versus control group. The data set is classed as cell-based, mice.
The target in another data set is MAO-A (Homo sapiens, UniProt P21397). Put plainly: MAO-A inhibition rate, enhanced Weissbach's method. It counts as biochemical.
Chain of MAO-A (P21397 whole entry): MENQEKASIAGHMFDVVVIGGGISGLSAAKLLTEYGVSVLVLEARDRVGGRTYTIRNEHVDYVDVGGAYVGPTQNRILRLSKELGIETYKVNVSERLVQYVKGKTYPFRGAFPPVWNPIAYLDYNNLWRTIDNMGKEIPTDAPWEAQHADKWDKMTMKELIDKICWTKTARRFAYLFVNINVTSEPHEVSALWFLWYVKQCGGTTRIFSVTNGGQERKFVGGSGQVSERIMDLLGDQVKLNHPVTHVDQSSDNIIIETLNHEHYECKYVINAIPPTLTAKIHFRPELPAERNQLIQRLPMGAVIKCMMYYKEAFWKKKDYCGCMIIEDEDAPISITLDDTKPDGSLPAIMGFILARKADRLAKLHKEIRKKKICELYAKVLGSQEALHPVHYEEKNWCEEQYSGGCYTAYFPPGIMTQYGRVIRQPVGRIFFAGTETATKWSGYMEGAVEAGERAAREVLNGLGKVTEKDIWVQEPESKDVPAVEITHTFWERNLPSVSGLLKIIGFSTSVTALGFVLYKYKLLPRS
The target in data set [3] is recombinant MAO-A from human (Homo sapiens, UniProt P21397). The experiment in a line: SPR affinity detection with MAO-A. The data set is classed as binding.
Chain of recombinant MAO-A from human (P21397 whole entry): as above
The conditions of data set [4]: rats, oral KXS 10 mL/kg (4 g/mL), 8 days.

`CC(C)(C)c1ccc(O)c(C(C)(C)C)c1` [2,4-Di-tert-butylphenol] yielded an IC50 against AChE [1] of 4.51 ± 0.191 µM. For the same compound, the “AChE inhibitory rate compared with galantamine” value on AChE [1] (25 μM) is “surpassed that of galantamine”. This compound displayed a dissociation constant (Kd) on AChE [2] of 0.133 µM. The “phagocytic ability of BV2 cells towards FITC-Aβ1−42 (fluorescence intensity)” value (“phagocytic ability” for short) in the data set on BV2 cells was “notable improvements in phagocytic activity”.

Turning to `COc1cc2c(=O)c3c(O)c([C@@H]4O[C@H](CO)[C@@H](O)[C@H](O)[C@H]4O)c(O)cc3oc2cc1O` [7-O-methylmangiferin], at AChE [1], the “inhibitory effect on AChE (in words)” value is on record as “relatively low”. In addition, the IC50 on AChE [1] (read-out: AChE IC50) turned out to be 2.98 ± 0.245 µM. Further, the equilibrium dissociation constant (Kd) on AChE [2] (read-out: AChE Affinity KD) was 16.9 µM.

With `CC12CCC(CC1=O)C2(C)C` (stereo not shown) [Camphor], on AChE [1], the AChE inhibition rate entry is recorded as “exceeding 80%” and it took 6.23 ± 0.567 µM to reach half-maximal inhibition (IC50). Moreover, at AChE [2], binding was characterised by a dissociation constant (Kd) of 0.0251 µM. Further, the “phagocytic ability” value in the data set with BV2 cells is recorded as “effectively enhanced the phagocytic capability”.

For `C#CCN(C)CCCOc1ccc(Cl)cc1Cl` [Clorgyline, reference compound], on MAO-A, the “MAO-A inhibition rate (in words)” value is “highest inhibition rate”.

`C=CCc1cc(OC)c(OC)c(OC)c1` [Elemicin]: the Kd in data set [3] is 4.69 µM. Further, the IC50 at MAO-A stood at 62.2 ± 1.08 µM. Also, on MAO-A (concentrations up to 50 μM), the “MAO-A inhibition rate (in words)” value is on record as “comparable inhibition rate”. Also, in the data set with BV2 cells, the “phagocytic ability” value was “significantly enhanced phagocytic ability”.

On to `C=CCc1ccc(OC)cc1` [Estragole], for which, in data set [3], the dissociation constant (Kd) stood at 2.35 µM. The IC50 on MAO-A turned out to be 144 ± 7.43 µM. Besides, the “phagocytic ability” value in the data set with BV2 cells is recorded as “notable improvements in phagocytic activity”.

`C=CCc1ccc(OC)c(OC)c1` [Methyl eugenol]: the Kd in data set [3] was determined as 5.83 µM. For the same compound, on MAO-A, the IC50 stood at 96.1 ± 9.87 µM. Besides, the “phagocytic ability” value with BV2 cells was “weaker phagocytic ability”.

Turning to `C/C=C/c1ccc(OC)c(OC)c1` [Methyl isoeugenol], at AChE [1], inhibition was half-maximal at 9.68 ± 0.353 µM (IC50). Moreover, binding at AChE [2] was put at a Kd of 0.0185 µM. In addition, the “phagocytic ability” value with BV2 cells is recorded as “weaker phagocytic ability”.

On to `O=c1c2cc(O)ccc2oc2cc(O)c([C@@H]3O[C@H](CO)[C@@H](O)[C@H](O)[C@H]3O[C@@H]3OC[C@](O)(CO)[C@H]3O)c(O)c12` [Sibiricaxanthone B], for which, on AChE [2] (read-out: AChE Affinity KD), the dissociation constant (Kd) came out at 1.2 µM.

In the case of `CCCCCCCCCCCCCCCC(=O)OC` [methyl palmitate], the AChE inhibition rate result at AChE [1] is “exceeding 80%”. The “phagocytic ability” value in the data set on BV2 cells is listed as “effectively enhanced the phagocytic capability”.

On to `CC1=CCC(O)(C(C)C)CC1` (stereo not shown) [terpinen-4-ol], for which the “phagocytic ability” value with BV2 cells was “effectively enhanced the phagocytic capability”; in the data set with BV2 cells (listed as terpiene-4-ol) it was “weaker phagocytic ability”.

With `C/C=C/c1cc(OC)c(OC)cc1OC` [α-asarone], the “detection in brain tissue” value in data set [4] was “found in brain samples”. In addition, the “phagocytic ability” value with BV2 cells is recorded as “notable improvements in phagocytic activity”.

For `C/C=C\c1cc(OC)c(OC)cc1OC` [β-asarone], in data set [4], the “detection in brain tissue” value is “found in brain samples”. Further, in the data set with BV2 cells, the “phagocytic ability” value is “notable improvements in phagocytic activity”.

As usually defined, the IC50 is the concentration at which inhibition is half-maximal. As a reminder, the Kd is the free concentration of one partner at which half of the binding sites on the other are occupied at equilibrium, for simple one-to-one binding.
